The results in this text go back to patent publication US9079901B2, “Fused heterocyclic compounds as ion channel modulators” (Gilead Sciences, Inc., priority 2010, dated 2015).

This experiment concerns the target wild-type human cardiac sodium channel, hNav1.5 (late sodium current) in HEK293 cells (Homo sapiens, UniProt Q14524). Description: Late INa screening assay (automated whole-cell patch clamp, PatchXpress). Type of experiment: cell-based. As to conditions: late INa generated with 10 μM Tefluthrin (or 50 nM ATX II), HEK293 hNav1.5; for inhibition at 1 µM: HEK293, compound at 1 μM, read-out: Late INa 1 μM (percent block of late INa). Put shortly:
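hNav1.5-expressing HEK293 cells (no β subunits) were recorded by automated whole-cell patch clamp at 24–27 °C with CsF-based internal solution. Late current was induced by 10 μM tefluthrin (or 50 nM ATX II) and evoked by 250 ms steps from −120 to −20 mV at 0.1 Hz. Compounds, typically 10 μM, were applied in three additions over 7–8 min; mean current at 225–250 ms, normalised to 0Na baseline, gave percent block.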
Background: In patch-clamp work, channel activity is measured electrically.

Chain of wild-type human cardiac sodium channel, hNav1.5 (late sodium current) in HEK293 cells (Q14524 whole entry): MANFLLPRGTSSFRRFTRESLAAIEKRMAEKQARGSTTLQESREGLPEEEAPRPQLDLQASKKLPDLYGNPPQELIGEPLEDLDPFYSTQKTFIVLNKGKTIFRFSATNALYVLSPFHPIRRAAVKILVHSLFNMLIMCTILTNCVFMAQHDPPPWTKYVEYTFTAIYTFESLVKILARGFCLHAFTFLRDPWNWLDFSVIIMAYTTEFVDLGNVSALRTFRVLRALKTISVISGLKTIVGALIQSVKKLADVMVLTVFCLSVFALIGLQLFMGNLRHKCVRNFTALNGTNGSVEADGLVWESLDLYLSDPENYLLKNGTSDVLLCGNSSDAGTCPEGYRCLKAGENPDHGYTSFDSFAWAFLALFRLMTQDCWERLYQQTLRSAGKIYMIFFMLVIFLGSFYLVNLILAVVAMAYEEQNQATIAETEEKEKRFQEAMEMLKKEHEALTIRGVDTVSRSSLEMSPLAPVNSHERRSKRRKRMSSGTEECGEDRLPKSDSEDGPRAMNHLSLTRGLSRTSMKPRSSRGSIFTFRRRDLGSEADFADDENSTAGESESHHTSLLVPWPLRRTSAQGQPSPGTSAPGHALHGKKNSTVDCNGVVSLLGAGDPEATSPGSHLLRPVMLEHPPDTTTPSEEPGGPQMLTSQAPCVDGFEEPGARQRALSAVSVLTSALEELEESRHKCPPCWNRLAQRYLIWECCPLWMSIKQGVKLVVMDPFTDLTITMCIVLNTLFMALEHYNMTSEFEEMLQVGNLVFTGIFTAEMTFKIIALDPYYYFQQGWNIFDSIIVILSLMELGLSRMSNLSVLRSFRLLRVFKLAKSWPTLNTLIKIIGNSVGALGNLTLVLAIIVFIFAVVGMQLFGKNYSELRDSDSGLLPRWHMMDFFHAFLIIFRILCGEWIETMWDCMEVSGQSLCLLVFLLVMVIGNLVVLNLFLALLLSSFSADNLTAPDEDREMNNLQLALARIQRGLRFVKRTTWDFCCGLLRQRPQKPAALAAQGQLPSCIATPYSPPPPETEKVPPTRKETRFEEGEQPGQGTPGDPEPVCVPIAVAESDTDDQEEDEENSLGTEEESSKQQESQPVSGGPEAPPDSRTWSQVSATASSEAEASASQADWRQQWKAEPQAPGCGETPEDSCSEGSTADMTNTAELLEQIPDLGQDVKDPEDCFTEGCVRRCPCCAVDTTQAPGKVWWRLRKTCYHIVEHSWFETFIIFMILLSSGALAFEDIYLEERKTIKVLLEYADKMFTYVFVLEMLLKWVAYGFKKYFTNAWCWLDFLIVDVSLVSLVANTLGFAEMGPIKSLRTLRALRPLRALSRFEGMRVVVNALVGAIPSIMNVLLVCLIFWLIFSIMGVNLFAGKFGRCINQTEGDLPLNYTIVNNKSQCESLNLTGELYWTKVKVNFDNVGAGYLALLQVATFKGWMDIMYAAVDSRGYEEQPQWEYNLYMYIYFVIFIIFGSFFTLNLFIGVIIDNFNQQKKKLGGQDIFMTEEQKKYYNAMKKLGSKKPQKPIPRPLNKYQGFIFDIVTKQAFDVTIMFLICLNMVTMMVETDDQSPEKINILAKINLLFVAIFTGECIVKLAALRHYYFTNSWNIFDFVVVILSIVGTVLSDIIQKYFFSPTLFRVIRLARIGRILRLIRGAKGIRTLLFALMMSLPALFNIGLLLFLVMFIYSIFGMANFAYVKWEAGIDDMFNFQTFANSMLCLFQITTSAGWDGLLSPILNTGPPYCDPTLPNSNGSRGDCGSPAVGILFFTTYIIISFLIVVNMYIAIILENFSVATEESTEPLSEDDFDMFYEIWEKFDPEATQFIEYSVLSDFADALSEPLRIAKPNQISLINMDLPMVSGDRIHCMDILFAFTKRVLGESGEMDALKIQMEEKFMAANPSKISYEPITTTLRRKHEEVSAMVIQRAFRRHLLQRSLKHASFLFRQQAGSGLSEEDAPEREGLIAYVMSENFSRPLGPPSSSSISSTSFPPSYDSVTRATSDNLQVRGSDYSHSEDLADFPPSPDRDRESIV

As to `Cc1cccnc1-c1cc(Cn2nc3ccc(-c4ccc(OC(F)(F)F)cc4)cn3c2=O)no1` [compound 145, 2-((5-(3-methylpyridin-2-yl)isoxazol-3-yl)methyl)-6-(4-(trifluoromethoxy)phenyl)-[1,2,4]triazolo[4,3-a]pyridin-3(2H)-one], the inhibition at 1 µM turned out to be 37.7%.

Turning to `O=c1n(Cc2noc(CO)n2)nc2ccc(-c3ccc(Oc4ccc(F)cc4)cc3)cn12` [compound 146, 6-(4-(4-fluorophenoxy)phenyl)-2-((5-(hydroxymethyl)-1,2,4-oxadiazol-3-yl)methyl)-[1,2,4]triazolo[4,3-a]pyridin-3(2H)-one], the inhibition at 1 µM is 32.6%.

For the molecule `Cc1noc(C(C)n2nc3ccc(-c4ccc(OC(F)(F)F)cc4)cn3c2=O)n1` (stereo not shown) [compound 147, 2-(1-(3-methyl-1,2,4-oxadiazol-5-yl)ethyl)-6-(4-(trifluoromethoxy)phenyl)-[1,2,4]triazolo[4,3-a]pyridin-3(2H)-one], the inhibition at 1 µM worked out at 13.4%.

Regarding `Cc1nc(Cn2nc3ccc(-c4ccc(C(F)(F)F)cc4)cn3c2=O)no1` [compound 148, 2-((5-methyl-1,2,4-oxadiazol-3-yl)methyl)-6-(4-(trifluoromethyl)phenyl)-[1,2,4]triazolo[4,3-a]pyridin-3(2H)-one], the inhibition at 1 µM was determined as 11.6%.

As to `Cc1noc(Cn2nc3ccc(-c4ccc(Cl)cc4)cn3c2=O)n1` [compound 149, 6-(4-chlorophenyl)-2-((3-methyl-1,2,4-oxadiazol-5-yl)methyl)-[1,2,4]triazolo[4,3-a]pyridin-3(2H)-one], the inhibition at 1 µM worked out at 26.2%.

Turning to `Cc1noc(Cn2nc3ccc(-c4ccc(F)c(F)c4)cn3c2=O)n1` [compound 150, 6-(3,4-difluorophenyl)-2-((3-methyl-1,2,4-oxadiazol-5-yl)methyl)-[1,2,4]triazolo[4,3-a]pyridin-3(2H)-one], the inhibition at 1 µM is 12.8%.

On to `O=c1n(C/C=C/c2ccccc2)nc2ccc(-c3ccc(OC(F)(F)F)cc3)cn12` [compound 151, 2-cinnamyl-6-(4-(trifluoromethoxy)phenyl)-[1,2,4]triazolo[4,3-a]pyridin-3(2H)-one], for which the inhibition at 1 µM was determined as 16.5%.

For `CC1(C)OC[C@@H](c2nc(Cn3nc4ccc(-c5ccc(OC(F)(F)F)cc5)cn4c3=O)no2)O1` [compound 152, (S)-2-((5-(2,2-dimethyl-1,3-dioxolan-4-yl)-1,2,4-oxadiazol-3-yl)methyl)-6-(4-(trifluoromethoxy)phenyl)-[1,2,4]triazolo[4,3-a]pyridin-3(2H)-one], the inhibition at 1 µM is 10.7%.

With `COCc1noc(Cn2nc3ccc(-c4ccc(OC(F)(F)F)cc4)cn3c2=O)n1` [compound 153, 2-((3-(methoxymethyl)-1,2,4-oxadiazol-5-yl)methyl)-6-(4-(trifluoromethoxy)phenyl)-[1,2,4]triazolo[4,3-a]pyridin-3(2H)-one], the inhibition at 1 µM stood at 23.2%.

In the case of `O=c1n(Cc2noc(C(F)F)n2)nc2ccc(-c3ccc(OC(F)(F)F)cc3)cn12` [compound 154, 2-((5-(difluoromethyl)-1,2,4-oxadiazol-3-yl)methyl)-6-(4-(trifluoromethoxy)phenyl)-[1,2,4]triazolo[4,3-a]pyridin-3(2H)-one], the inhibition at 1 µM turned out to be 21%.

`Cc1noc(Cn2nc3ccc(-c4ccc(OC(F)(F)F)c(F)c4)cn3c2=O)n1` [compound 155, 6-(3-fluoro-4-(trifluoromethoxy)phenyl)-2-((3-methyl-1,2,4-oxadiazol-5-yl)methyl)-[1,2,4]triazolo[4,3-a]pyridin-3(2H)-one]: the inhibition at 1 µM turned out to be 18.8%.

On to `O=c1n(CCOc2nccc(OCCO)n2)nc2ccc(-c3ccc(OC(F)(F)F)cc3)cn12` [compound 156, 2-(2-(4-(2-hydroxyethoxy)pyrimidin-2-yloxy)ethyl)-6-(4-(trifluoromethoxy)phenyl)-[1,2,4]triazolo[4,3-a]pyridin-3(2H)-one], for which the inhibition at 1 µM was 6.62%.

For the molecule `O=c1n(Cc2noc(CCl)n2)nc2ccc(-c3ccc(OC(F)(F)F)cc3)cn12` [compound 157, 2-((5-(chloromethyl)-1,2,4-oxadiazol-3-yl)methyl)-6-(4-(trifluoromethoxy)phenyl)-[1,2,4]triazolo[4,3-a]pyridin-3(2H)-one], the inhibition at 1 µM worked out at 22.7%.

With `CC1(C)OC[C@H](c2nc(Cn3nc4ccc(-c5ccc(OC(F)(F)F)cc5)cn4c3=O)no2)O1` [compound 158, (R)-2-((5-(2,2-dimethyl-1,3-dioxolan-4-yl)-1,2,4-oxadiazol-3-yl)methyl)-6-(4-(trifluoromethoxy)phenyl)-[1,2,4]triazolo[4,3-a]pyridin-3(2H)-one], the inhibition at 1 µM worked out at 25.3%.

Take `CSc1ccnc(OCCn2nc3ccc(-c4ccc(OC(F)(F)F)cc4)cn3c2=O)n1` [compound 159, 2-(2-(4-(methylthio)pyrimidin-2-yloxy)ethyl)-6-(4-(trifluoromethoxy)phenyl)-[1,2,4]triazolo[4,3-a]pyridin-3(2H)-one]: the inhibition at 1 µM is 49.6%.

As to `N#CCOc1ccnc(OCCn2nc3ccc(-c4ccc(OC(F)(F)F)cc4)cn3c2=O)n1` [compound 160], the “Late INa 1 μM (percent block of late INa)” value (compound at 1 μM) is 24.6907%.

With `Cc1noc(Cn2nc3ccc(-c4ccc(Cl)c(F)c4)cn3c2=O)n1` [compound 161, 6-(4-chloro-3-fluorophenyl)-2-((3-methyl-1,2,4-oxadiazol-5-yl)methyl)-[1,2,4]triazolo[4,3-a]pyridin-3(2H)-one], the inhibition at 1 µM is 13.9%.

For the molecule `O=c1n(Cc2noc(COc3ncccn3)n2)nc2ccc(-c3ccc(OC(F)(F)F)cc3)cn12` [compound 162, 2-((5-((pyrimidin-2-yloxy)methyl)-1,2,4-oxadiazol-3-yl)methyl)-6-(4-(trifluoromethoxy)phenyl)-[1,2,4]triazolo[4,3-a]pyridin-3(2H)-one], the inhibition at 1 µM came to 18.5%.

For the molecule `Cn1cc(Cn2nc3ccc(-c4ccc(OC(F)(F)F)cc4)cn3c2=O)cn1` [compound 163, 2-((1-methyl-1H-pyrazol-4-yl)methyl)-6-(4-(trifluoromethoxy)phenyl)-[1,2,4]triazolo[4,3-a]pyridin-3(2H)-one], the inhibition at 1 µM came to 12%.

`Cc1cc(Cn2nc3ccc(-c4ccc(OC(F)(F)F)cc4)cn3c2=O)on1` [compound 164, 2-((3-methylisoxazol-5-yl)methyl)-6-(4-(trifluoromethoxy)phenyl)-[1,2,4]triazolo[4,3-a]pyridin-3(2H)-one]: the inhibition at 1 µM worked out at 16.9%.

Regarding `Cn1ccc(Cn2nc3ccc(-c4ccc(OC(F)(F)F)cc4)cn3c2=O)n1` [compound 165, 2-((1-methyl-1H-pyrazol-3-yl)methyl)-6-(4-(trifluoromethoxy)phenyl)-[1,2,4]triazolo[4,3-a]pyridin-3(2H)-one], the inhibition at 1 µM was 10.8%.

On to `CCc1noc(Cn2nc3ccc(-c4ccc(OC(F)(F)F)cc4)cn3c2=O)n1` [compound 166, 2-((3-ethyl-1,2,4-oxadiazol-5-yl)methyl)-6-(4-(trifluoromethoxy)phenyl)-[1,2,4]triazolo[4,3-a]pyridin-3(2H)-one], for which the inhibition at 1 µM was 24.4%.

For the molecule `CCc1noc(Cn2nc3ccc(-c4ccc(C(F)(F)F)cc4)cn3c2=O)n1` [compound 167, 2-((3-ethyl-1,2,4-oxadiazol-5-yl)methyl)-6-(4-(trifluoromethyl)phenyl)-[1,2,4]triazolo[4,3-a]pyridin-3(2H)-one], the inhibition at 1 µM worked out at 26.2%.

As to `COCc1noc(Cn2nc3ccc(-c4ccc(C(F)(F)F)cc4)cn3c2=O)n1` [compound 168, 2-((3-(methoxymethyl)-1,2,4-oxadiazol-5-yl)methyl)-6-(4-(trifluoromethyl)phenyl)-[1,2,4]triazolo[4,3-a]pyridin-3(2H)-one], the inhibition at 1 µM came to 19.1%.

Regarding `[2H]C([2H])([2H])c1noc(Cn2nc3ccc(-c4ccc(OC(F)(F)F)cc4)cn3c2=O)n1` [compound 169, 2-((3-trideuteromethyl-1,2,4-oxadiazol-5-yl)methyl)-6-(4-(trifluoromethoxy)phenyl)-[1,2,4]triazolo[4,3-a]pyridin-3(2H)-one], the inhibition at 1 µM worked out at 24.1%.

For `O=c1n(Cc2nnc(C3CC3)s2)nc2ccc(-c3ccc(OC(F)(F)F)cc3)cn12` [compound 170, 2-((5-cyclopropyl-1,3,4-thiadiazol-2-yl)methyl)-6-(4-(trifluoromethoxy)phenyl)-[1,2,4]triazolo[4,3-a]pyridin-3(2H)-one], the inhibition at 1 µM is 18%.

As to `O=c1[nH]nc2ccc(-c3ccc(C(F)(F)F)cc3)cn12` [compound 171, 6-(4-(trifluoromethyl)phenyl)-[1,2,4]triazolo[4,3-a]pyridin-3(2H)-one], the inhibition at 1 µM amounted to 19.6%.

For `Cc1cnc(Cn2nc3ccc(-c4ccc(C(F)(F)F)cc4)cn3c2=O)o1` [compound 172, 2-((5-methyloxazol-2-yl)methyl)-6-(4-(trifluoromethyl)phenyl)-[1,2,4]triazolo[4,3-a]pyridin-3(2H)-one], the inhibition at 1 µM worked out at 24.8%.

As to `Cc1nc(Cn2nc3ccc(-c4ccc(C(F)(F)F)cc4)cn3c2=O)oc1C` [compound 173, 2-((4,5-dimethyloxazol-2-yl)methyl)-6-(4-(trifluoromethyl)phenyl)-[1,2,4]triazolo[4,3-a]pyridin-3(2H)-one], the inhibition at 1 µM was 22.2%.

For the molecule `O=c1n(CCOc2nccn3ccnc23)nc2ccc(-c3ccc(OC(F)(F)F)cc3)cn12` [compound 174, 2-(2-(imidazo[1,2-a]pyrazin-8-yloxy)ethyl)-6-(4-(trifluoromethoxy)phenyl)-[1,2,4]triazolo[4,3-a]pyridin-3(2H)-one], the inhibition at 1 µM came to 26.3%.

On to `O=c1n(Cc2noc(COc3ccccn3)n2)nc2ccc(-c3ccc(OC(F)(F)F)cc3)cn12` [compound 175, 2-((5-((pyridin-2-yloxy)methyl)-1,2,4-oxadiazol-3-yl)methyl)-6-(4-(trifluoromethoxy)phenyl)-[1,2,4]triazolo[4,3-a]pyridin-3(2H)-one], for which the inhibition at 1 µM was 28.9%.
